Experimental data reported in ChEMBL document CHEMBL5042516, “Heterobivalent Ligand for the Adenosine A2A-Dopamine D2 Receptor Heteromer” (J Med Chem, 2022).
Activity calls are given as the source filed them. No cut-off for these calls is given here.

Experiments:
[1] = organism: Ovis aries; experiment: Displacement of [3H]YM-09151-2 from dopamine D2 receptor from sheep brain striatum membrane assessed as first protomer region in unoccupied dimer incubated for 2 hrs by radioligand based competition binding assay; assay type: cell membranes
[2] = system: CHO; experiment: Antagonist activity at chinese hamster A2A receptor expressed in CHO cells assessed as CGS 21 680 induced response at 10 nM and measured for 30 mins by dynamic mass redistribution by DMR assay; assay type: cell-based; settings: Cricetulus griseus, filed as antagonist
[3] = system: CHO; experiment: Antagonist activity at chinese hamster D2 receptor expressed in CHO cells assessed as su-manirole induced response at 0.1 nM and measured for 30 mins by dynamic mass redistribution by DMR assay relative to control; assay type: cell-based; settings: Cricetulus griseus, filed as antagonist
[4] = system: HEK293T; experiment: Stabilization of A2A/D2 receptor heterodimerization in human HEK-293T cells cotransfected with A2AR-Rluc and D2R-YFP at 100 nM assessed as increase in heteromer stabilization by measuring yellow fluorescent protein level by BRET assay relative to control; assay type: cell-based
[5] = organism: Ovis aries; experiment: Displacement of [3H]- ZM 241 385 from A2A receptor from sheep brain striatum membrane assessed as first protomer region in the unoccupied dimer incubated for 2 hrs by radioligand based competition binding assay; assay type: cell membranes
[6] = organism: Ovis aries; experiment: Displacement of [3H]- ZM 241 385 from A2A receptor from sheep brain striatum membrane assessed as first protomer region in the unoccupied dimer in presence of TM3-TAT peptide by radioligand based competition binding assay; assay type: cell membranes
[7] = organism: Ovis aries; experiment: Displacement of [3H]- ZM 241 385 from A2A receptor from sheep brain striatum membrane assessed as first protomer region in the unoccupied dimer in presence of TM5-TAT peptide by radioligand based competition binding assay; assay type: cell membranes

K [1] [nM] | Compound | Activity [2] | Activity [3] | Activity [4] | other results
0.5 | COC(=O)CN(CC(=O)NCCOCCOCCOCCOCCOCCNC(C)=O)CC(=O)NCCOCCOCCOCCOCCOCCNC(=O)CCC(=O)Nc1ccc(CCN2CN(c3ccccc3)C3(CCN(CCCC(=O)c4ccc(F)cc4)CC3)C2=O)cc1 |  |  |  | 
 | Nc1nc2c(cnn2CCCc2ccc(OCC(=O)O)cc2)c2nc(-c3ccco3)nn12 | Antagonist |  |  | 
 | O=C(O)CCC(=O)Nc1ccc(CCN2CN(c3ccccc3)C3(CCN(CCCC(=O)c4ccc(F)cc4)CC3)C2=O)cc1 |  | Active |  | 
 | COC(=O)CN(CC(=O)NCCCOCCOCCOCCCNC(=O)CCC(=O)Nc1ccc(CCN2CN(c3ccccc3)C3(CCN(CCCC(=O)c4ccc(F)cc4)CC3)C2=O)cc1)CC(=O)NCCCOCCOCCOCCCNC(=O)COc1ccc(CCCn2ncc3c2nc(N)n2nc(-c4ccco4)nc32)cc1 | Antagonist | Antagonist | Active | 
0.13 | COC(=O)CN(CC(=O)NCCOCCOCCOCCOCCOCCNC(=O)CCC(=O)Nc1ccc(CCN2CN(c3ccccc3)C3(CCN(CCCC(=O)c4ccc(F)cc4)CC3)C2=O)cc1)CC(=O)NCCOCCOCCOCCOCCOCCNC(=O)COc1ccc(CCCn2ncc3c2nc(N)n2nc(-c4ccco4)nc32)cc1 | Antagonist | Antagonist | Active | K [5]: 2.1 nM; K [6]: 1.7 nM; K [7]: 36 nM
 | COC(=O)CN(CC(=O)NCCOCCOCCNC(=O)CCC(=O)Nc1ccc(CCN2CN(c3ccccc3)C3(CCN(CCCC(=O)c4ccc(F)cc4)CC3)C2=O)cc1)CC(=O)NCCOCCOCCNC(=O)COc1ccc(CCCn2ncc3c2nc(N)n2nc(-c4ccco4)nc32)cc1 |  |  | Active | 
